Assay results as given in PubChem BioAssay AID248 (DTP/NCI, 2004).
Several values for one entry are separate records, joined by “and”; a condition that tells them apart may be missing. Equal values may be shown once. Inconclusive results and toxic doses are left out. No stated cut-off is given here; in the data, active means T/C of 150% or more; inactive means T/C below 125%.

Test system: L1210 leukemia ip in BDF1 mice, survival T/C
Assay: NCI In Vivo Anticancer Drug Screen. Data for tumor model L1210 Leukemia (intraperitoneal) in B6D2F1 (BDF1) mice
Conditions: endpoint: mean survival time, higher = longer survival
How it was run: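 Antitumor effect is assessed in tumor-bearing animals. Survival in the compound arm is compared with a vehicle-dosed control arm and expressed as their quotient.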

[1] = dose: 100.0 mg/kg/injection, schedule: Q04DX003 (ip), vehicle: saline with Tween-80
[2] = dose: 200.0 mg/kg/injection, schedule: Q04DX003 (ip), vehicle: saline with Tween-80
[3] = dose: 400.0 mg/kg/injection, schedule: Q04DX003 (ip), vehicle: saline with Tween-80
[4] = dose: 25.0 mg/kg/injection, schedule: Q01DX009 (ip), vehicle: saline
[5] = dose: 50.0 mg/kg/injection, schedule: Q01DX001 (ip), vehicle: saline
[6] = dose: 50.0 mg/kg/injection, schedule: Q01DX009 (ip), vehicle: saline
[7] = dose: 100.0 mg/kg/injection, schedule: Q01DX001 (ip), vehicle: saline
[8] = dose: 100.0 mg/kg/injection, schedule: Q01DX009 (ip), vehicle: saline
[9] = dose: 200.0 mg/kg/injection, schedule: Q01DX001 (ip), vehicle: saline
[10] = dose: 400.0 mg/kg/injection, schedule: Q01DX001 (ip), vehicle: saline
[11] = dose: 100.0 mg/kg/injection, schedule: Q04DX002 (ip), vehicle: Klucel (hydroxypropylcellulose) (HPC)
[12] = dose: 200.0 mg/kg/injection, schedule: Q04DX002 (ip), vehicle: Klucel (hydroxypropylcellulose) (HPC)
[13] = dose: 400.0 mg/kg/injection, schedule: Q04DX002 (ip), vehicle: Klucel (hydroxypropylcellulose) (HPC)
[14] = dose: 100.0 mg/kg/injection, schedule: Q01DX009 (ip), vehicle: saline with Tween-80
[15] = dose: 200.0 mg/kg/injection, schedule: Q01DX009 (ip), vehicle: saline with Tween-80
[16] = dose: 400.0 mg/kg/injection, schedule: Q01DX009 (ip), vehicle: saline with Tween-80
[17] = dose: 100.0 mg/kg/injection, schedule: Q04DX003 (ip), vehicle: Klucel (hydroxypropylcellulose) (HPC)
[18] = dose: 200.0 mg/kg/injection, schedule: Q04DX003 (ip), vehicle: Klucel (hydroxypropylcellulose) (HPC)
[19] = dose: 400.0 mg/kg/injection, schedule: Q04DX003 (ip), vehicle: Klucel (hydroxypropylcellulose) (HPC)
[20] = dose: 25.0 mg/kg/injection, schedule: Q01DX001 (ip), vehicle: saline

Measured: T/C

CC1CCC(C2=CSC3CCCCC3N2)CC1 (stereo not drawn)
inactive: dose: 100.0 mg/kg/injection, schedule: Q04DX002 (ip), vehicle: other 105 % of control | dose: 200.0 mg/kg/injection, schedule: Q04DX002 (ip), vehicle: other 94 % of control | dose: 400.0 mg/kg/injection, schedule: Q04DX002 (ip), vehicle: other 94 % of control

N=C(OCCCO)C(=N)OCCCO
inactive: [1] 115 % of control | [2] 102 % of control | [3] 96 % of control

CCOC(=O)C(NC(=O)C(Cc1ccc(N(CCCl)CCCl)cc1)NC(C)=O)C(C)C (stereo not drawn)
inactive: dose: 7.5 mg/kg/injection, schedule: Q01DX009 (ip), vehicle: alcohol 96 % of control | dose: 15.0 mg/kg/injection, schedule: Q01DX009 (ip), vehicle: alcohol 120 % of control | dose: 24.0 mg/kg/injection, schedule: Q01DX009 (ip), vehicle: carboxymethylcellulose (CMC) 96 % of control | [4] 98 % of control | dose: 30.0 mg/kg/injection, schedule: Q04DX003 (ip), vehicle: alcohol 110 % of control | dose: 36.0 mg/kg/injection, schedule: Q01DX009 (ip), vehicle: carboxymethylcellulose (CMC) 98 % of control | [5] 111 % of control | dose: 50.0 mg/kg/injection, schedule: Q01DX009 (ip), vehicle: carboxymethylcellulose (CMC) 104 % of control | [6] 101 % of control | dose: 50.0 mg/kg/injection, schedule: Q04DX003 (ip), vehicle: alcohol 110 % of control | dose: 75.0 mg/kg/injection, schedule: Q01DX009 (ip), vehicle: carboxymethylcellulose (CMC) 102 % of control | dose: 75.0 mg/kg/injection, schedule: Q04DX003 (ip), vehicle: alcohol 121 % of control | [7] 105 % of control | [8] 109 % of control | dose: 112.0 mg/kg/injection, schedule: Q01DX009 (ip), vehicle: alcohol 103 % of control and 108 % of control | dose: 112.0 mg/kg/injection, schedule: Q01DX009 (ip), vehicle: carboxymethylcellulose (CMC) 96 % of control | dose: 112.0 mg/kg/injection, schedule: Q04DX003 (ip), vehicle: alcohol 118 % of control | dose: 178.0 mg/kg/injection, schedule: Q01DX009 (ip), vehicle: carboxymethylcellulose (CMC) 107 % of control | dose: 178.0 mg/kg/injection, schedule: Q01DX015 (ip), vehicle: saline 103 % of control | [9] 105 % of control | dose: 267.0 mg/kg/injection, schedule: Q01DX009 (ip), vehicle: carboxymethylcellulose (CMC) 96 % of control | dose: 267.0 mg/kg/injection, schedule: Q01DX015 (ip), vehicle: saline 108 % of control | [10] 115 % of control | dose: 400.0 mg/kg/injection, schedule: Q01DX009 (ip), vehicle: carboxymethylcellulose (CMC) 98 % of control | dose: 400.0 mg/kg/injection, schedule: Q01DX015 (ip), vehicle: saline 106 % of control | dose: 600.0 mg/kg/injection, schedule: Q01DX009 (ip), vehicle: carboxymethylcellulose (CMC) 96 % of control | dose: 600.0 mg/kg/injection, schedule: Q01DX015 (ip), vehicle: saline 94 % of control

O=c1cc(-c2ccccc2)nc2c(Cl)cc(Cl)cn12
inactive: dose: 100.0 mg/kg/injection, schedule: Q04DX003 (ip), vehicle: acetone 95 % of control | dose: 200.0 mg/kg/injection, schedule: Q04DX003 (ip), vehicle: acetone 104 % of control | dose: 400.0 mg/kg/injection, schedule: Q04DX003 (ip), vehicle: acetone 96 % of control

CCn1c2ccccc2c2cc3ccnc(C)c3cc21
inactive: [11] 97 % of control | [12] 101 % of control | [13] 111 % of control

CC1=CC(=O)c2c(O)ccc(O)c2C1=O
inactive: dose: 2.5 mg/kg/injection, schedule: Q04DX003 (ip), vehicle: other 95 % of control | dose: 5.0 mg/kg/injection, schedule: Q01DX001 (ip), vehicle: saline 101 % of control | dose: 5.0 mg/kg/injection, schedule: Q04DX003 (ip), vehicle: other 103 % of control | dose: 10.0 mg/kg/injection, schedule: Q01DX001 (ip), vehicle: saline 97 % of control | dose: 10.0 mg/kg/injection, schedule: Q04DX003 (ip), vehicle: other 94 % of control | dose: 20.0 mg/kg/injection, schedule: Q01DX001 (ip), vehicle: saline 100 % of control | dose: 40.0 mg/kg/injection, schedule: Q01DX001 (ip), vehicle: saline 102 % of control

CC(C)C(C(=O)c1ccccc1)c1ccccc1 (stereo not drawn)
inactive: [14] 93 % of control | [1] 99 % of control | [15] 93 % of control | [2] 100 % of control | [16] 104 % of control | [3] 89 % of control

O=C(Nc1ccc(F)c(Cl)c1)Oc1ccc(OCc2ccccc2)cc1
inactive: [17] 94 % of control | [18] 94 % of control | [19] 95 % of control

CSc1nc(C(Cl)Cl)cnc1Cl
inactive: [11] 102 % of control | [12] 91 % of control | [13] 105 % of control

OC1(O)COC(c2ccccc2)OC1
inactive: [8] 96 % of control | [17] 105 % of control | dose: 200.0 mg/kg/injection, schedule: Q01DX009 (ip), vehicle: saline 102 % of control | [18] 101 % of control | dose: 400.0 mg/kg/injection, schedule: Q01DX009 (ip), vehicle: saline 93 % of control | [19] 99 % of control

O=C(O)C(CSSCC(NS(=O)(=O)Cc1ccccc1)C(=O)O)NS(=O)(=O)Cc1ccccc1 (stereo not drawn)
inactive: dose: 100.0 mg/kg/injection, schedule: Q04DX003 (ip), vehicle: other 97 % of control | dose: 200.0 mg/kg/injection, schedule: Q04DX003 (ip), vehicle: other 92 % of control | dose: 400.0 mg/kg/injection, schedule: Q04DX003 (ip), vehicle: other 93 % of control

CC(=O)Cc1cc(C)c(C(C)=O)c(O)c1C(C)=O
inactive: [17] 103 % of control | [18] 108 % of control | [19] 105 % of control

CC(NC(=O)C(CO)NC(=O)c1cnc2ccccc2n1)C(=O)OC(C)(C)C (stereo not drawn)
inactive: [7] 102 % of control | [9] 102 % of control | [10] 115 % of control

CCN(CC)Cc1cc(Nc2nc(/C=C/c3ccc(Cl)cc3)nc(Cl)c2-c2ccc(Cl)cc2)ccc1O
inactive: dose: 12.0 mg/kg/injection, schedule: Q01DX001 (ip), vehicle: saline 100 % of control | dose: 12.5 mg/kg/injection, schedule: Q04DX003 (ip), vehicle: Klucel (hydroxypropylcellulose) (HPC) 95 % of control | [20] 107 % of control | dose: 25.0 mg/kg/injection, schedule: Q04DX003 (ip), vehicle: Klucel (hydroxypropylcellulose) (HPC) 98 % of control | [5] 100 % of control | dose: 50.0 mg/kg/injection, schedule: Q04DX003 (ip), vehicle: Klucel (hydroxypropylcellulose) (HPC) 97 % of control

CC(C)c1nccn1Cc1ccccc1
inactive: [20] 97 % of control | [4] 105 % of control and 118 % of control | dose: 25.0 mg/kg/injection, schedule: Q04DX002 (ip), vehicle: saline 100 % of control and 101 % of control and 90 % of control | dose: 25.0 mg/kg/injection, schedule: Q04DX003 (ip), vehicle: saline 100 % of control | [5] 97 % of control | [6] 100 % of control and 102 % of control | dose: 50.0 mg/kg/injection, schedule: Q04DX003 (ip), vehicle: saline 92 % of control | dose: 75.0 mg/kg/injection, schedule: Q04DX002 (ip), vehicle: saline 106 % of control | [7] 112 % of control | [8] 100 % of control and 89 % of control

CC(C)CC(NC(=O)OCc1ccccc1)C(=O)O (stereo not drawn)
inactive: [14] 87 % of control | [1] 103 % of control | [15] 97 % of control | [2] 101 % of control | [16] 95 % of control | [3] 97 % of control

COc1cc(OC)c(NC(=O)NC(C)C)cc1Cl
inactive: [1] 98 % of control | [2] 89 % of control | [3] 88 % of control

CC12C=CC(CC1)C2O (stereo not drawn)
inactive: [14] 105 % of control | [1] 100 % of control | [15] 96 % of control | [2] 96 % of control | [3] 98 % of control
